Experimental data from ChEMBL document CHEMBL3885861, “Open TG-GATES”.

Organism: Rattus norvegicus
Experiment: Open TG-GATES - Regimen: Single
Format: toxicity, organism-based, Sprague-Dawley
Parameters: regimen Single, gender Male, age 6 weeks
Settings: in vivo, po, route gavage; for TC / TG / TP / gamma-GTP / ALP / ALT / AST / BUN / CRE / Ca / Cl / DBIL / GLC / K / LDH / Na / RALB / TBIL / IP / PL: tissue Plasma; for APTT / Bas / Eos / Fbg / Hb / Ht / Lym / MCH / MCHC / Mono / Neu / PT / Plat / RBC / Ret / WBC / MCV: tissue Blood; for KIDNEY_L / KIDNEY_R / KIDNEY_TOTAL: tissue Kidney; for LIVER: tissue Liver
[1] = 1000 mg/kg, 24 h, dose level Middle
[2] = 2000 mg/kg, 3 h, dose level High
[3] = 2000 mg/kg, 6 h, dose level High
[4] = 2000 mg/kg, 9 h, dose level High
[5] = 2000 mg/kg, 24 h, dose level High

## CCOc1ccc(NC(C)=O)cc1 [PHENACETIN]
[1]
  TC: 97.2 mg/dL
  TG: 92.4 mg/dL
  TP: 5.6 g/dL
  gamma-GTP: 1.2 IU/L
[2]
  TERMINAL_BW: 214.4 g
  APTT: 17.5 s
  Bas: 0%
  Eos: 1%
  Fbg: 307.2 mg/dL
  Hb: 13.9 g/dL
  Ht: 41%
  Lym: 76.8%
  MCH: 21.2 pg
  MCHC: 33.8%
  Mono: 2.8%
  Neu: 19%
  PT: 14.2 s
  Plat: 115.4 x10_4/uL
  RBC: 652.4 x10_4/ul
  Ret: 9%
  WBC: 60.2 x10_2/uL
  KIDNEY_L: 0.9 g
  KIDNEY_R: 1 g
  KIDNEY_TOTAL: 1.9 g
  LIVER: 9.2 g
  ALP: 1540.4 IU/L
  ALT: 39.8 IU/L
  AST: 70.4 IU/L
  BUN: 10.2 mg/dL
  CRE: 0.1 mg/dL
  Ca: 11 mg/dL
  Cl: 99.4 meq/L
  DBIL: 0 mg/dL
  GLC: 240.4 mg/dL
  K: 3.7 meq/L
  LDH: 78 IU/L
  Na: 139 meq/L
  RALB: 2.6 g/dL
  TBIL: 0.034 mg/dL
  TG: 47.4 mg/dL
  TP: 5.5 g/dL
  gamma-GTP: 1 IU/L
[3]
  TERMINAL_BW: 209.5 g
  Bas: 0%
  Eos: 0.4%
  Fbg: 308.8 mg/dL
  Ht: 40.1%
  Lym: 74.2%
  MCH: 21.2 pg
  MCV: 61.4 fL
  Mono: 2.2%
  PT: 14.2 s
  Plat: 115.7 x10_4/uL
  RBC: 653.8 x10_4/ul
  Ret: 8.4%
  WBC: 47.7 x10_2/uL
  KIDNEY_L: 0.9 g
  KIDNEY_R: 0.9 g
  KIDNEY_TOTAL: 1.8 g
  LIVER: 9.1 g
  ALP: 1249 IU/L
  ALT: 45.6 IU/L
  AST: 84 IU/L
  BUN: 10.2 mg/dL
  CRE: 0.1 mg/dL
  Ca: 11.1 mg/dL
  Cl: 103 meq/L
  DBIL: 0 mg/dL
  GLC: 192.2 mg/dL
  IP: 9.9 mg/dL
  K: 3.8 meq/L
  LDH: 93.2 IU/L
  Na: 139.2 meq/L
  PL: 136.4 mg/dL
  RALB: 2.7 g/dL
  TBIL: 0.032 mg/dL
  TC: 83.8 mg/dL
  TP: 5.6 g/dL
  gamma-GTP: 1.2 IU/L
[4]
  TERMINAL_BW: 210.8 g
  APTT: 16.8 s
  Bas: 0%
  Eos: 0.4%
  Fbg: 288.4 mg/dL
  Hb: 13.3 g/dL
  Ht: 38.1%
  Lym: 73.6%
  MCH: 20.9 pg
  MCHC: 35%
  MCV: 59.8 fL
  Mono: 3.2%
  Neu: 22%
  PT: 14.3 s
  Plat: 123.9 x10_4/uL
  RBC: 638.6 x10_4/ul
  Ret: 8.7%
  WBC: 54.6 x10_2/uL
  KIDNEY_L: 0.9 g
  KIDNEY_R: 0.9 g
  KIDNEY_TOTAL: 1.8 g
  LIVER: 9 g
  ALP: 1259 IU/L
  ALT: 40.6 IU/L
  AST: 70.8 IU/L
  BUN: 10.2 mg/dL
  CRE: 0.1 mg/dL
  Ca: 10.9 mg/dL
  Cl: 101.2 meq/L
  DBIL: 0 mg/dL
  GLC: 205.6 mg/dL
  IP: 9.1 mg/dL
  K: 3.6 meq/L
  LDH: 66.8 IU/L
  Na: 137.6 meq/L
  PL: 163 mg/dL
  RALB: 2.5 g/dL
  TBIL: 0.034 mg/dL
  TC: 99.6 mg/dL
  TG: 18 mg/dL
  TP: 5.5 g/dL
  gamma-GTP: 1.6 IU/L
[5]
  TERMINAL_BW: 193.2 g
  APTT: 18.2 s
  Bas: 0.6%
  Eos: 0.6%
  Fbg: 273.4 mg/dL
  Hb: 14.2 g/dL
  Ht: 41.5%
  Lym: 75%
  MCH: 20.8 pg
  MCHC: 34.2%
  MCV: 60.7 fL
  Mono: 2.6%
  Neu: 20.8%
  PT: 14.5 s
  Plat: 138.6 x10_4/uL
  RBC: 684.2 x10_4/ul
  Ret: 7.5%
  WBC: 70 x10_2/uL
  KIDNEY_L: 0.9 g
  KIDNEY_R: 1 g
  KIDNEY_TOTAL: 1.9 g
  LIVER: 7.5 g
  ALP: 1341.4 IU/L
  ALT: 44.8 IU/L
  AST: 115 IU/L
  BUN: 12 mg/dL
  CRE: 0.2 mg/dL
  Ca: 10.7 mg/dL
  Cl: 104.2 meq/L
  DBIL: 0.024 mg/dL
  GLC: 171.2 mg/dL
  IP: 9.6 mg/dL
  K: 4.3 meq/L
  LDH: 206 IU/L
  Na: 140.8 meq/L
  PL: 150.6 mg/dL
  RALB: 2.7 g/dL
  TBIL: 0.046 mg/dL
  TC: 90.4 mg/dL
  TG: 52.6 mg/dL
  TP: 5.7 g/dL
  gamma-GTP: 1 IU/L
